# Tests used:
# squirrel monkeys = test: Monkey self-administration model of addictive potential
# [1] = Pharmacokinetics following oral (PO) dosing; type: in vivo, Sprague-Dawley rats; conditions: male, Sprague-Dawley, rat, plasma
# Text: There were 3 rats/group. All animals were food fasted overnight. […] The predose sample was collected from the JVC.
# Following the last collection point, the animals were euthanized.
# human mu opioid receptor = target: T1, human mu opioid receptor (Homo sapiens, UniProt P35372); test: cell-based
# T1 construct: expressed in transfected cells; host or cells: CHO cells
# Sprague-Dawley male rats = test: Motor coordination (sedation) on the rotarod treadmill; type: in vivo; conditions: for sedation compared to oxycodone: equianalgesic dose
# Procedure: The following studies were conducted to evaluate the effect of orally administered PEG-6-O-hydroxycodone on motor coordination (i.e., sedation) in rats using the rat rotarod Treadmill. Motor coordination was evaluated at 0.5 h and 1 h post-dose.
# The rats weighed between 240 to 280 grams on the day of study. Rats were not fasted prior to dosing.
# Animals were trained to run on the treadmill for 2 consecutive days prior to the day of study. Animals were trained at a constant speed of 10 RPM and were given as many trials as necessary until they were able to stay on the rotarod for 300 seconds. Rats that were able to stay on the rod for 300 seconds were considered trained. On the day of study, animals were placed on the rotarod treadmill at 0, 30, and 60 minutes post dose. The treadmill was set at a constant speed of 4 RPM for 15 seconds, at this point the timer was started (T=0). After this 15 second period, the rotarod was set to accelerate from 4-40 RPM over a five minute period (using the built in program of the rotarod). The time (in seconds) that each animal stopped running and tripped the plate was recorded as the animal's run time. Animals that ran for 300 seconds were taken of the treadmill and 300 seconds was recorded as the run time.
# The objective of this study was to evaluate the effect of 10, 30, 100, and 300 mg/kg of PEG-6-O-hydroxycodone on motor coordination in rats using the rotarod treadmill. All doses were administered orally and evaluated at 0.5 h and 1 h post-dose.
# [2] = hydroxycodone series, 5.0 mg/kg oral, Mean ± SD
# T1 sequence (P35372 whole entry): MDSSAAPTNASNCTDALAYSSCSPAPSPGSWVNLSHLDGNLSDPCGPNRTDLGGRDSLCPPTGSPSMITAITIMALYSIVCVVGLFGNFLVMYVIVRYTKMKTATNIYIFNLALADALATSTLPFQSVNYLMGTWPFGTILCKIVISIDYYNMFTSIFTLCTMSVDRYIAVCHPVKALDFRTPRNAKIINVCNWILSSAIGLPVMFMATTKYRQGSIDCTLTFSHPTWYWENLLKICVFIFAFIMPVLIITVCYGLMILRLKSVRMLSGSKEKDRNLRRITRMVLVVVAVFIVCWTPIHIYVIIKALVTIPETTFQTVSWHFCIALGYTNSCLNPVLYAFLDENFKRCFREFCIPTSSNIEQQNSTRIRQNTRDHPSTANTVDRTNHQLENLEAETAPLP
smiles,measurement,setting,value
"COCCOCCOCCOCCOCCOCCOC1CCC2(O)C3Cc4ccc(OC)c5c4C2(CCN3C)C1O5 (stereo not drawn) [α-6-mPEG6-O-hydroxycodone, α-6-mPEG6-O-oxycodone]",injection lever responses (% ILR),squirrel monkeys; 0.03 mg/kg/injection,only food lever responses
same,injection lever responses (% ILR),squirrel monkeys; 1 mg/kg/injection,39%
same,subjects showing addictive behavior,squirrel monkeys; 1 mg/kg/injection,25%
same,injection lever responses (% ILR),"squirrel monkeys; 1 mg/kg/injection, listed as α-mPEG-6-O-hydroxycodone",38±24%
same,subjects showing addictive behavior,squirrel monkeys; 3 mg/kg/injection,50%
same,bioavailability,"[1]; po, 5 mg/kg",55.3%
same,AUC,[1]; [2],585 ng·h/mL
same,MRT last,[1]; [2],2.57 h
same,AUC(0-inf),"[1]; hydroxycodone series, 5.0 mg/kg oral, Mean ± SD, * n = 2",603 ng·h/mL
same,half-life,"[1]; hydroxycodone series, 5.0 mg/kg oral, Mean ± SD, * n = 2, read-out: T1/2(z)",1.42 ± 0.131 h
same,Cmax,"[1]; hydroxycodone series, 5.0 mg/kg oral, Mean ± SD, read-out: Cmax",171 ± 76.6 ng/mL
same,Tmax,"[1]; hydroxycodone series, 5.0 mg/kg oral, median value, read-out: Tmax (converted)",2 h
same,Emax,"human mu opioid receptor; maximal response at the highest tested concentration, read-out: % max effect, mu opioid receptor",102%
same,EC50,"human mu opioid receptor; read-out: EC50, mu opioid receptor",12.5 µM
same,"motor impairment, overall","Sprague-Dawley male rats; 300 mg/kg oral, 0.5 h and 1 h post-dose",slight motor impairment
same,"rotarod performance, overall","Sprague-Dawley male rats; 10, 30, 100 mg/kg oral",failed to impair rotarod performance
same,sedation compared to oxycodone,Sprague-Dawley male rats; listed as PEG-6-O-hydroxycodone,produces less sedation than the parent opioid
same,sedation compared to oxycodone,Sprague-Dawley male rats; listed as mPEG6-O-hydroxycodone,less sedation
same,time spent on the rotarod compared to saline control,"Sprague-Dawley male rats; initial study, 30 mg/kg oral, 0.5 h post-dose",showed a reduction in time spent on the rotarod
same,rotarod performance compared to saline control,"Sprague-Dawley male rats; initial study, 10, 100 or 300 mg/kg oral, 0.5 h and 1 h post-dose",did not exhibit impaired rotarod performance
same,time spent on rotarod compared to saline control,"Sprague-Dawley male rats; repeated study, 300 mg/kg oral, 0.5 h and 1 h post-dose",showed a reduction in time spent on rotarod
same,rotarod performance compared to saline control,"Sprague-Dawley male rats; repeated study, 10, 30 or 100 mg/kg oral, 0.5 h and 1 h post-dose",did not demonstrate impaired rotarod performance

# Reference: patent US20130023553A1, “PEGYLATED OPIOIDS WITH LOW POTENTIAL FOR ABUSE AND SIDE EFFECTS” (Nektar Therapeutics, priority 2010, published 2013)
